Laboratory results from patent EP3939578A1, “COMPOUNDS FOR TREATMENT OR PREVENTION OF AN INFECTION RESULTING FROM A CORONAVIRUS AND/OR A CORONAVIRUS-INDUCED DISEASE” (Novaremed Ltd., priority 2020, dated 2022).
Entries after “also recorded” stand apart in the source; their conditions may differ.

Assays:
[1] = Gravimetric Vapour Sorption (GVS); assay type: physicochemical
Procedure: Approximately 10 mg of sample was placed into a wire-mesh vapour sorption balance pan and loaded into an 'IgaSorp' vapour sorption balance (Hiden Analytical Instruments). The sample was then dried by maintaining a 0% humidity environment until no further weight change was recorded. Subsequently, the sample was subjected to a ramping profile from 0 - 90 % RH at 10 % RH increments, maintaining the sample at each step until equilibration had been attained (99% step completion). Upon reaching equilibration, the % RH within the apparatus was ramped to the next step and the equilibration procedure repeated. After completion of the sorption cycle, the sample was then dried using the same procedure. The weight change during the sorption/desorption cycles were then monitored, allowing for the hygroscopic nature of the sample to be determined.

[2] = Dog bioavailability tests of polymorphs 1 and 2; assay type: in vivo; settings: compared with polymorph 1
From the text: The bioavailability of polymorphs 1 and 2 has also been tested and made available in PCT/EP2020/051528 as Example 3 and is incorporated herein by reference.

Compound | rapid moisture uptake between 70% and 80% RH ([1]; GVS, between 70% and 80% RH, hysteresis between adsorption and desorption cycles) | weight increase in second adsorption cycle ([1]; GVS, second adsorption cycle, at an RH of 40%, different form arising after the first cycle) | weight increase to 70% RH ([1]; GVS, to 70% RH) | overall weight loss by the end of the two adsorption/desorption cycles ([1]; GVS, after two adsorption/desorption cycles, sharp weight loss at 90% RH) | weight gain to 80% RH ([1]; GVS, to 80% RH) | change of polymorphic form (XRPD) after GVS ([1]; XRPD after two adsorption/desorption cycles) | bioavailability [2]
C[C@H](O)COC[C@H](Cc1ccc(O)cc1)NC(=O)CCc1ccccc1 [polymorph 1, (S,S)-2-N(3-O-(propan-2-ol)-1-propyl-4-hydroxybenzene)-3-phenylpropylamide] | 5.6% | > 2% | ~1.3% | – | – | – | –
C[C@H](O)COC[C@H](Cc1ccc(O)cc1)NC(=O)CCc1ccccc1 [polymorph 2, (S,S)-2-N(3-O-(propan-2-ol)-1-propyl-4-hydroxybenzene)-3-phenylpropylamide] | – | – | – | ~1% | 0.6% | no change of polymorphic form | higher than for polymorph 1; also recorded: better bioavailability as compared to polymorph 1; also recorded: exceptionally high
